Source: US20250281554A1, “COMPOSITION FOR IMPROVING DRUG SENSITIVITY OF ANTIBACTERIAL DRUG TO METHICILLIN-RESISTANT STAPHYLOCOCCUS AUREUS (MRSA), COMPOSITION FOR TREATING OR PREVENTING MRSA INFECTION, AND COMPOSITION FOR REDUCING VIRULENCE OF MRSA” (priority 2021, published 2025)
≈ marks a conversion by molar mass, not a printed value.

The compounds below were run on wild-type strain (MRSA2007-13 strain) (assay: drug sensitivity test (disk method), wild-type strain). Settings: MRSA2007-13 WT; Mueller-Hinton II agar, 37° C., 24 hours.
Type: cell-based, methicillin-resistant Staphylococcus aureus
Description: (§1) The drug sensitivities of a wild-type strain (MRSA2007-13 strain) and a mutant (SAm1-201) to β-lactam antibacterial drugs were measured in a drug sensitivity test (disk method). The test method will be explained. The wild-type strain (MRSA2007-13 strain) or the mutant (SAm1-201) was streaked on LB-Agar, and cultured at 37° C. overnight. The following day, single colonies were collected, added to 5 mL of Trypticase soy broth, and subjected to shaking culture at 37° C. overnight. After culturing, the bacterial solution was adjusted to McFarland turbidity No. 0.5, and evenly smeared on Mueller-Hinton II agar medium with a sterile cotton swab. After disposing sensitivity disks on the agar medium, culture was performed at 37° C. for 24 hours, and the diameter of an inhibitory zone formed around each disk was measured in millimeters.
For drug sensitivity rating (disk method), SAm1-201 in this document: key: resistance (R); sensitivity(S).
For drug sensitivity rating (disk method), WT in this document: key: resistance (R); sensitivity(S).

Compound	drug sensitivity rating (disk method), WT
CC1(C)S[C@@H]2[C@H](NC(=O)[C@H](N)c3ccc(O)cc3)C(=O)N2[C@H]1C(=O)O [AMPC, amoxicillin]	R
CC1=C(C(=O)O)N2C(=O)[C@@H](NC(=O)[C@H](N)c3ccccc3)[C@H]2SC1 [CEX, cephalexin]	R
COCC1=C(C(=O)O)N2C(=O)[C@@H](NC(=O)/C(=N\OC)c3csc(N)n3)[C@H]2SC1 [CPDX, cefpodoxime]	R
C[C@@H](O)[C@H]1C(=O)N2C(C(=O)O)=C([C@H]3CCCO3)S[C@H]12 [FRPM, faropenem]	R
C[C@@H](O)[C@H]1C(=O)N2C(C(=O)O)=C(SCCN=CN)C[C@H]12 [IPM, imipenem]	R
C[C@@H](O)[C@H]1C(=O)N2C(C(=O)O)=C(S[C@@H]3CN[C@H](C(=O)N(C)C)C3)[C@H](C)[C@H]12 [MEPE, meropenem]	R
Cc1onc(-c2ccccc2)c1C(=O)N[C@@H]1C(=O)N2[C@@H]1SC(C)(C)[C@@H]2C(=O)O [MPIPC, oxacillin]	R

Same assay, conditions: MRSA2007-13 WT; number in brackets; 37° C., 24 hours

Compound	diameter of inhibitory zone, WT
C[C@@H](O)[C@H]1C(=O)N2C(C(=O)O)=C(SCCN=CN)C[C@H]12 [IPM, imipenem]	9 millimeters
C[C@@H](O)[C@H]1C(=O)N2C(C(=O)O)=C(S[C@@H]3CN[C@H](C(=O)N(C)C)C3)[C@H](C)[C@H]12 [MEPE, meropenem]	7 millimeters

Each compound was assayed on mutant (SAm1-201) of MRSA2007-13 (assay: drug sensitivity test (disk method), mutant SAm1-201). Settings: MRSA2007-13 SAm1-201; Mueller-Hinton II agar, 37° C., 24 hours.
Type: cell-based, methicillin-resistant Staphylococcus aureus
Description: as §1

Compound	drug sensitivity rating (disk method), SAm1-201
CC1(C)S[C@@H]2[C@H](NC(=O)[C@H](N)c3ccc(O)cc3)C(=O)N2[C@H]1C(=O)O [AMPC, amoxicillin]	S
CC1=C(C(=O)O)N2C(=O)[C@@H](NC(=O)[C@H](N)c3ccccc3)[C@H]2SC1 [CEX, cephalexin]	S
COCC1=C(C(=O)O)N2C(=O)[C@@H](NC(=O)/C(=N\OC)c3csc(N)n3)[C@H]2SC1 [CPDX, cefpodoxime]	S
C[C@@H](O)[C@H]1C(=O)N2C(C(=O)O)=C([C@H]3CCCO3)S[C@H]12 [FRPM, faropenem]	S
C[C@@H](O)[C@H]1C(=O)N2C(C(=O)O)=C(SCCN=CN)C[C@H]12 [IPM, imipenem]	S
C[C@@H](O)[C@H]1C(=O)N2C(C(=O)O)=C(S[C@@H]3CN[C@H](C(=O)N(C)C)C3)[C@H](C)[C@H]12 [MEPE, meropenem]	S
Cc1onc(-c2ccccc2)c1C(=O)N[C@@H]1C(=O)N2[C@@H]1SC(C)(C)[C@@H]2C(=O)O [MPIPC, oxacillin]	S

Same assay, conditions: MRSA2007-13 SAm1-201; number in brackets; 37° C., 24 hours

Compound	diameter of inhibitory zone, SAm1-201
CC1(C)S[C@@H]2[C@H](NC(=O)[C@H](N)c3ccc(O)cc3)C(=O)N2[C@H]1C(=O)O [AMPC, amoxicillin]	34 millimeters
CC1=C(C(=O)O)N2C(=O)[C@@H](NC(=O)[C@H](N)c3ccccc3)[C@H]2SC1 [CEX, cephalexin]	29 millimeters
COCC1=C(C(=O)O)N2C(=O)[C@@H](NC(=O)/C(=N\OC)c3csc(N)n3)[C@H]2SC1 [CPDX, cefpodoxime]	28 millimeters
C[C@@H](O)[C@H]1C(=O)N2C(C(=O)O)=C([C@H]3CCCO3)S[C@H]12 [FRPM, faropenem]	≥ 50 millimeters
C[C@@H](O)[C@H]1C(=O)N2C(C(=O)O)=C(SCCN=CN)C[C@H]12 [IPM, imipenem]	44 millimeters
C[C@@H](O)[C@H]1C(=O)N2C(C(=O)O)=C(S[C@@H]3CN[C@H](C(=O)N(C)C)C3)[C@H](C)[C@H]12 [MEPE, meropenem]	28 millimeters
Cc1onc(-c2ccccc2)c1C(=O)N[C@@H]1C(=O)N2[C@@H]1SC(C)(C)[C@@H]2C(=O)O [MPIPC, oxacillin]	35 millimeters

Each compound was assayed on wild-type strain (MRSA2007-13 strain) (assay: drug sensitivity test (MIC method), wild-type strain). Settings: MRSA2007-13 WT; dry plate, cultured 20 hours; in µg/mL (unit assumed).
Type: cell-based, methicillin-resistant Staphylococcus aureus
Description: (§2) Next, the drug sensitivities of a wild-type strain (MRSA2007-13 strain) and mutated strains having a mutation in both mgrA and femA (SAm1-201, SAm1-206, SAm1-210) to antibacterial drugs were measured in a drug sensitivity test (MIC method). The test method will be explained. A bacterial solution (a wild-type strain or a mutant) precultured overnight was diluted with sterile physiological saline to reach OD600≈0.26, and 25 μL of the bacterial solution was added to 12 mL of Mueller-Hinton liquid medium (Eiken Chemical Co., Ltd.). To each well of a dry plate (Eiken Chemical Co., Ltd.), […] of the bacterial solution was added, and cultured for 20 hours. After culturing, the MIC was determined based on determination criteria for the dry plate.

Compound	MIC, WT
CC1(C)S[C@@H]2[C@H](NC(=O)[C@H](N)c3ccc(O)cc3)C(=O)N2[C@H]1C(=O)O [AMPC, amoxicillin]	64
C[C@@H](O)[C@H]1C(=O)N2C(C(=O)O)=C([C@H]3CCCO3)S[C@H]12 [FRPM, faropenem]	>128
C[C@@H](O)[C@H]1C(=O)N2C(C(=O)O)=C(SCCN=CN)C[C@H]12 [IPM, imipenem]	64
C[C@@H](O)[C@H]1C(=O)N2C(C(=O)O)=C(S[C@@H]3CN[C@H](C(=O)N(C)C)C3)[C@H](C)[C@H]12 [MEPE, meropenem]	32

These compounds were tested on MRSA2007-13 SAm1-201 (mgrA mutation and femA mutation) (assay: drug sensitivity test (MIC method), SAm1-201). Settings: dry plate, cultured 20 hours.
Type: cell-based, methicillin-resistant Staphylococcus aureus
Description: as §2

Compound	MIC, SAm1-201
C[C@@H](O)[C@H]1C(=O)N2C(C(=O)O)=C([C@H]3CCCO3)S[C@H]12 [FRPM, faropenem]	0.125>
C[C@@H](O)[C@H]1C(=O)N2C(C(=O)O)=C(SCCN=CN)C[C@H]12 [IPM, imipenem]	0.125>
C[C@@H](O)[C@H]1C(=O)N2C(C(=O)O)=C(S[C@@H]3CN[C@H](C(=O)N(C)C)C3)[C@H](C)[C@H]12 [MEPE, meropenem]	0.125>

Same assay, conditions: dry plate, cultured 20 hours, unit assumed

Compound	MIC, SAm1-201
CC1(C)S[C@@H]2[C@H](NC(=O)[C@H](N)c3ccc(O)cc3)C(=O)N2[C@H]1C(=O)O [AMPC, amoxicillin]	8 µg/mL (≈ 21.9 µM)
Cc1onc(-c2ccccc2)c1C(=O)N[C@@H]1C(=O)N2[C@@H]1SC(C)(C)[C@@H]2C(=O)O [MPIPC, oxacillin]	0.125 µg/mL (≈ 0.311 µM)

What follows are compounds tested on MRSA2007-13 SAm1-206 (mgrA mutation and femA mutation) (assay: drug sensitivity test (MIC method), SAm1-206). Settings: dry plate, cultured 20 hours, unit assumed.
Type: cell-based, methicillin-resistant Staphylococcus aureus
Description: as §2

Compound	MIC, SAm1-206
CC1(C)S[C@@H]2[C@H](NC(=O)[C@H](N)c3ccc(O)cc3)C(=O)N2[C@H]1C(=O)O [AMPC, amoxicillin]	16 µg/mL (≈ 43.8 µM)
C[C@@H](O)[C@H]1C(=O)N2C(C(=O)O)=C([C@H]3CCCO3)S[C@H]12 [FRPM, faropenem]	0.25 µg/mL (≈ 0.876 µM)
C[C@@H](O)[C@H]1C(=O)N2C(C(=O)O)=C(SCCN=CN)C[C@H]12 [IPM, imipenem]	1 µg/mL (≈ 3.34 µM)
C[C@@H](O)[C@H]1C(=O)N2C(C(=O)O)=C(S[C@@H]3CN[C@H](C(=O)N(C)C)C3)[C@H](C)[C@H]12 [MEPE, meropenem]	4 µg/mL (≈ 10.4 µM)
Cc1onc(-c2ccccc2)c1C(=O)N[C@@H]1C(=O)N2[C@@H]1SC(C)(C)[C@@H]2C(=O)O [MPIPC, oxacillin]	4 µg/mL (≈ 9.96 µM)

These compounds were tested on MRSA2007-13 SAm1-210 (mgrA mutation and femA mutation) (assay: drug sensitivity test (MIC method), SAm1-210). Settings: dry plate, cultured 20 hours, unit assumed.
Type: cell-based, methicillin-resistant Staphylococcus aureus
Description: as §2

Compound	MIC, SAm1-210
CC1(C)S[C@@H]2[C@H](NC(=O)[C@H](N)c3ccc(O)cc3)C(=O)N2[C@H]1C(=O)O [AMPC, amoxicillin]	2 µg/mL (≈ 5.47 µM)
C[C@@H](O)[C@H]1C(=O)N2C(C(=O)O)=C([C@H]3CCCO3)S[C@H]12 [FRPM, faropenem]	0.125 µg/mL (≈ 0.438 µM)
C[C@@H](O)[C@H]1C(=O)N2C(C(=O)O)=C(SCCN=CN)C[C@H]12 [IPM, imipenem]	0.125 µg/mL (≈ 0.418 µM)
C[C@@H](O)[C@H]1C(=O)N2C(C(=O)O)=C(S[C@@H]3CN[C@H](C(=O)N(C)C)C3)[C@H](C)[C@H]12 [MEPE, meropenem]	0.125 µg/mL (≈ 0.326 µM)
Cc1onc(-c2ccccc2)c1C(=O)N[C@@H]1C(=O)N2[C@@H]1SC(C)(C)[C@@H]2C(=O)O [MPIPC, oxacillin]	0.125 µg/mL (≈ 0.311 µM)

These compounds were tested on wild-type strain (MRSA2007-13 strain) (assay: growth-inhibitory effect of phage and oxacillin added from the beginning, turbidimetry). Settings: WT MRSA, ϕSA012 ≈1.0×10^7 pfu/mL (MOI≈0.1), oxacillin sodium 16 μg/mL, 37° C.
Type: cell-based, methicillin-resistant Staphylococcus aureus
Description: The test method is shown in the following. This test was performed by means of turbidimetry. A bacterial solution (wild-type strain (MRSA2007-13 strain)) precultured overnight was diluted with LB-Broth to reach OD600≈1.0, and further 10-fold diluted (˜ 1.0×10^8 cfu/mL).
The plate was set in a Sunrise Rainbow Thermo RC (Tecan Japan Co., Ltd.), and shaking culture was performed at 37° C. for 90 hours while absorbance values at a wavelength of 590 nm were measured every 15 minutes.

Compound	bacterial growth inhibition (turbidity) over 90 hours
Cc1onc(-c2ccccc2)c1C(=O)N[C@@H]1C(=O)N2[C@@H]1SC(C)(C)[C@@H]2C(=O)O [MPIPC, oxacillin]	failed in inhibiting bacterial growth
